# From ChEMBL document CHEMBL1201862, “PubChem BioAssay data set” (2004)
#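 Exposure lasted 48 hours, with cells grown in 96-well plates and compounds tested at five concentrations. GI50: concentration for 50% inhibition of growth.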 Active and inactive are the calls of the source. Cut-off read from the data, not from the text of the source: active = GI50 up to about 1.1 µM and inactive = higher.
# Columns and labels:
# Assay in all cases: growth of human tumour cells (NCI), 48 h
# NCI-H460 = system: NCI-H460
# K562 = system: K562
# SF-268 = system: SF-268
# UACC-257 = system: UACC-257
# TK-10 = system: TK-10
# A549 = system: A549
# RXF 393 = system: RXF 393
# SK-MEL-2 = system: SK-MEL-2
# HL-60 = system: HL-60
# HOP-92 = system: HOP-92
# 786-0 = system: 786-0
# DLD-1 = system: DLD-1
# ACHN = system: ACHN
# OVCAR-3 = system: OVCAR-3
# HCC 2998 = system: HCC 2998
SMILES,GI50 (NCI-H460),GI50 (K562),GI50 (SF-268),GI50 (UACC-257),GI50 (TK-10),GI50 (A549),GI50 (RXF 393),GI50 (SK-MEL-2),GI50 (HL-60),GI50 (HOP-92),GI50 (786-0),GI50 (DLD-1),GI50 (ACHN),GI50 (OVCAR-3),GI50 (HCC 2998)
COc1ccc(OC)c(CCc2ccccc2CC(=O)O)c1,> 100 µM (inactive),> 100 µM (inactive),> 100 µM (inactive),> 100 µM (inactive),> 100 µM (inactive),> 100 µM (inactive),> 100 µM (inactive),> 100 µM (inactive),> 100 µM (inactive),> 100 µM (inactive),> 100 µM (inactive),> 100 µM (inactive),> 100 µM (inactive),> 100 µM (inactive),> 100 µM (inactive)
CCN(CC)c1ccc2c(c1)N=C1N=CC=CN1C2(c1ccc(N(C)C)cc1)c1ccc(N(C)C)cc1,5.62 µM (inactive),2.3 µM (inactive),11 µM (inactive),5.24 µM (inactive),13 µM (inactive),12 µM (inactive),8.57 µM (inactive),12.6 µM (inactive),1.43 µM (inactive),2.82 µM (inactive),7.73 µM (inactive),4.53 µM (inactive),4.5 µM (inactive),3.16 µM (inactive),3.24 µM (inactive)
CCC12CCCN(Cc3ccccc3)C1c1c(n(C)c3ccccc13)C(C(=O)OC)C2 (stereo not given),117 µM (inactive),93.5 µM (inactive),175 µM (inactive),66.4 µM (inactive),> 239 µM (inactive),> 239 µM (inactive),128 µM (inactive),> 239 µM (inactive),87.3 µM (inactive),79.8 µM (inactive),206 µM (inactive),212 µM (inactive),182 µM (inactive),53.7 µM (inactive),164 µM (inactive)
COC(=O)C1=C(c2ccc(OC)c(OC)c2)OC(c2ccc(OC)c(OC)c2)C1 (stereo not given),41 µM (inactive),32.1 µM (inactive),35.6 µM (inactive),36.3 µM (inactive),43.2 µM (inactive),42.3 µM (inactive),25.6 µM (inactive),57.9 µM (inactive),9.82 µM (inactive),13.8 µM (inactive),31.6 µM (inactive),5.93 µM (inactive),25.4 µM (inactive),33.9 µM (inactive),66.1 µM (inactive)
COc1cc2c(c(OC)c1OC)-c1ccc(SC)c(=O)cc1C(CC(=O)Oc1cccc(F)c1)C2 (stereo not given),0.212 µM (active),0.149 µM (active),0.653 µM (active),14.9 µM (inactive),61.7 µM (inactive),0.577 µM (active),0.129 µM (active),0.397 µM (active),0.0906 µM (active),1.24 µM (inactive),0.114 µM (active),0.397 µM (active),0.243 µM (active),0.0946 µM (active),0.111 µM (active)
CCOc1ccc(/C=C\c2cc(OC)c(OC)c(OC)c2)cc1,0.000674 µM (active),< 0.0001 µM (active),0.000625 µM (active),0.01 µM (active),29.6 µM (inactive),0.0006 µM (active),< 0.0001 µM (active),0.00378 µM (active),< 0.0001 µM (active),0.000828 µM (active),0.000216 µM (active),0.0194 µM (active),0.01 µM (active),0.000303 µM (active),0.0685 µM (active)
CC(C)C(Nc1c2ccccc2nc2ccccc12)C(=O)O (stereo not given),65.5 µM (inactive),> 100 µM (inactive),> 100 µM (inactive),> 100 µM (inactive),> 100 µM (inactive),> 100 µM (inactive),> 100 µM (inactive),> 100 µM (inactive),52.6 µM (inactive),29.2 µM (inactive),> 100 µM (inactive),> 100 µM (inactive),49.2 µM (inactive),94.2 µM (inactive),> 100 µM (inactive)
